Measured values from patent publication US8012975B2, “Antitumoral analogs of ET-743” (Pharma Mar, S.A., priority 2000, dated 2011).
Like-named read-outs stand apart in the source and are kept apart here.

How the values were obtained:
MEL-28 [1] = test: Cytotoxic activity IC50, MEL-28; details: Homo sapiens, SK-MEL-28, read-out: CYTOTOXIC ACTIVITIY IC50 (μM) MEL-28
A-549 = test: Cytotoxic activity IC50, A-549; details: Homo sapiens, A549, read-out: CYTOTOXIC ACTIVITIY IC50 (μM) A-549
[2] = Cytotoxic activity IC50, CV-1; details: African green monkey, CV-1 cells
P-388 = test: Cytotoxic activity IC50, P-388; details: Mus musculus, P388, read-out: CYTOTOXIC ACTIVITIY IC50 (μM) P-388
HT-29 [3] = test: Cytotoxic activity IC50, HT-29; details: Homo sapiens, HT-29, read-out: CYTOTOXIC ACTIVITIY IC50 (μM) HT-29
DU-145 [4] = test: Cytotoxic activity IC50, DU-145; details: Homo sapiens, DU-145, read-out: CYTOTOXIC ACTIVITIY IC50 (μM) DU-145
[5] = background statement, no test described; cited from earlier work
PC3 = test: Cytotoxic activity (M) panel, Prostate PC3; details: Homo sapiens, PC-3, read-out: CYTOTOXIC ACTIVITY (M) PC3
DU-145 [6] = test: Cytotoxic activity (M) panel, Prostate DU-145; details: Homo sapiens, DU-145, read-out: CYTOTOXIC ACTIVITY (M) DU-145
5637 = test: Cytotoxic activity (M) panel, Bladder 5637; details: read-out: CYTOTOXIC ACTIVITY (M) 5637
A549 = test: Cytotoxic activity (M) panel, NSCL A549; details: Homo sapiens, A549, read-out: CYTOTOXIC ACTIVITY (M) A549
HT-29 [7] = test: Cytotoxic activity (M) panel, Colon HT-29; details: Homo sapiens, HT-29, read-out: CYTOTOXIC ACTIVITY (M) HT-29
SK-OV-3 = test: Cytotoxic activity (M) panel, Ovary SK-OV-3; details: Homo sapiens, SK-OV-3, read-out: CYTOTOXIC ACTIVITY (M) SK-OV-3
SW-694 = test: Cytotoxic activity (M) panel, Fibrosarcoma SW-694; details: read-out: CYTOTOXIC ACTIVITY (M) SW-694
FADU = test: Cytotoxic activity (M) panel, Pharnynx FADU; details: Homo sapiens, read-out: CYTOTOXIC ACTIVITY (M) FADU
MX-1 = test: Cytotoxic activity (M) panel, Breast MX-1; details: Homo sapiens, MX1, read-out: CYTOTOXIC ACTIVITY (M) MX-1
786-O = test: Cytotoxic activity (M) panel, Renal 786-O; details: Homo sapiens, 786-0, read-out: CYTOTOXIC ACTIVITY (M) 786-O
CHSA = test: Cytotoxic activity (M) panel, Chondrosarcoma CHSA; details: read-out: CYTOTOXIC ACTIVITY (M) CHSA
MEL-28 [8] = test: Cytotoxic activity (M) panel, Melanoma Mel-28; details: Homo sapiens, SK-MEL-28, read-out: CYTOTOXIC ACTIVITY (M) Mel-28
LNCAP = test: Cytotoxic activity (M) panel, Prostate LNCAP; details: Homo sapiens, read-out: CYTOTOXIC ACTIVITY (M) LNCAP
Hs746t = test: Cytotoxic activity (M) panel, Gastric Hs746t; details: Homo sapiens, read-out: CYTOTOXIC ACTIVITY (M) Hs746t
SK-HEP-1 = test: Cytotoxic activity (M) panel, Liver SK-HEP-1; details: Homo sapiens, SK-HEP1, read-out: CYTOTOXIC ACTIVITY (M) SK-HEP-1
PANC-1 = test: Cytotoxic activity (M) panel, Pancreas PANC-1; details: Homo sapiens, PANC-1, read-out: CYTOTOXIC ACTIVITY (M) PANC-1
Y-79 = test: Cytotoxic activity (M) panel, Retinoblastoma Y-79; details: Homo sapiens, Y79, read-out: CYTOTOXIC ACTIVITY (M) Y-79
OSA-FH = test: Cytotoxic activity (M) panel, Osteosarcoma OSA-FH; details: read-out: CYTOTOXIC ACTIVITY (M) OSA-FH
NCI-H187 [9] = system: NCI-H187
HL60 [10] = test: cells; details: Homo sapiens, HL-60, read-out: CYTOTOXIC ACTIVITY (M) HL60, leukemias & lymphomas, ALL Promyelocytic leukemia, line HL60
Molt 3 [11] = system: Molt 3
Hut 78 [12] = test: Cytotoxic activity (M) panel, Lymphoma Cutaneus T cell Hut 78; details: Homo sapiens, HuT78, read-out: CYTOTOXIC ACTIVITY (M) Hut 78, leukemias & lymphomas, Lymphoma Cutaneus T cell, line Hut 78
U-937 = test: Cytotoxic activity (M) panel, Lymphoma Histiocytic U-937; details: Homo sapiens, U-937, read-out: CYTOTOXIC ACTIVITY (M) U-937
H9 [13] = test: cells; details: Homo sapiens, H9, read-out: CYTOTOXIC ACTIVITY (M) H9, leukemias & lymphomas, Lymphoma T-cell, line H9
K562 = test: cells; details: Homo sapiens, K562, read-out: CYTOTOXIC ACTIVITY (M) K562
RAMOS [14] = system: RAMOS
Molt 3 [15] = test: Cytotoxic activity (M) panel, Acute lymphoblastic Molt 3; details: Homo sapiens, MOLT-3, read-out: CYTOTOXIC ACTIVITY (M) Molt 3, leukemias & lymphomas, ALL Acute lymphoblastic, line Molt 3
RAMOS [16] = test: cells; details: Homo sapiens, read-out: CYTOTOXIC ACTIVITY (M) RAMOS, leukemias & lymphomas, Lymphoma Burkitts B celll, line RAMOS
MC116 [17] = test: Cytotoxic activity (M) panel, Lymphoma undifferentiated MC116; details: Homo sapiens, MC116, read-out: CYTOTOXIC ACTIVITY (M) MC116, leukemias & lymphomas, Lymphoma undifferentiated, line MC116
H9 [18] = system: H9
NCI-H187 [19] = test: Cytotoxic activity (M) panel, SCL NCI-H187; details: Homo sapiens, NCI-H187, read-out: CYTOTOXIC ACTIVITY (M) NCI-H187
HL60 [20] = details: human
MC116 [21] = details: human
Hut 78 [22] = details: human

SMILES | IC50 (PC3) | IC50 (DU-145 [6]) | IC50 5637 | IC50 (A549) | IC50 (HT-29 [7]) | IC50 (SK-OV-3) | IC50 (SW-694) | IC50 (FADU) | IC50 (MX-1) | IC50 (786-O) | IC50 (CHSA) | IC50 (MEL-28 [8]) | IC50 (LNCAP) | IC50 (Hs746t) | IC50 (SK-HEP-1) | IC50 (PANC-1) | IC50 (Y-79) | IC50 (OSA-FH) | IC50 (K562) | also measured
COCOc1c(OC)c(C)cc2c1[C@@H]1C3Cc4c(OC(=O)C(F)(F)C(F)(F)C(F)(F)F)c(C)c5c(c4[C@H](CNC(=O)CCc4ccccc4)N3[C@@H](C#N)[C@H](C2)N1C)OCO5 (stereo partly drawn) |  |  |  |  |  |  |  |  |  |  |  |  |  |  |  |  |  |  |  | IC50 (MEL-28 [1]): 0.5 µM; IC50 (A-549): 0.5 µM; IC50 [2]: 500 nM; IC50 (P-388): 0.5 µM; IC50 (HT-29 [3]): 0.5 µM; IC50 (DU-145 [4]): 0.5 µM
COC1=C(C)C(=O)C2=C(C1=O)[C@@H]1[C@@H]3Cc4c(OC(=O)CO)c(C)c(OC)c(O)c4[C@H](CNC(=O)C(C)=O)N3[C@@H](C#N)[C@H](C2)N1C [Saframycin R] |  |  |  |  |  |  |  |  |  |  |  |  |  |  |  |  |  |  |  | toxicity [5]: moderate toxicity
COc1c(C)cc2c(c1O)[C@@H]1C3Cc4c(OC(C)=O)c(C)c5c(c4[C@H](CNC(=O)/C=C/c4cccc(C(F)(F)F)c4)N3[C@@H](O)[C@H](C2)N1C)OCO5 (stereo partly drawn) [drawing 211] | 6.65e-09 M | 5.73e-10 M | 6.02e-10 M | 3.25e-09 M | 7.84e-10 M | 4.39e-11 M | 9.91e-10 M | 5.41e-11 M | 1.65e-06 M | 6.58e-12 M | 3.24e-10 M | 2.6e-10 M | 5.45e-10 M | 7.9e-12 M | 1.79e-12 M | 7.22e-11 M |  |  |  | 
COc1c(C)cc2c(c1O)[C@@H]1C3Cc4c(OC(C)=O)c(C)c5c(c4[C@H](CNC(=O)/C=C/c4ccccc4)N3[C@@H](O)[C@H](C2)N1C)OCO5 (stereo partly drawn) [drawing 213] | 4.7e-09 M | 2.22e-09 M | 1.91e-10 M |  | 2.12e-09 M | 8.74e-09 M | 1.39e-06 M | 3.71e-10 M | 2.38e-09 M | 1.72e-09 M | 1.39e-09 M | 2.18e-09 M | 3.94e-11 M | 7.1e-11 M | 3.15e-09 M | 1.29e-10 M | 8.85e-11 M | 1.09e-09 M |  | IC50 (NCI-H187 [9]): 0.0778 pM
COc1c(C)cc2c(c1O)[C@@H]1C3Cc4c(OC(C)=O)c(C)c5c(c4[C@H](CNC(=O)CCc4ccccc4)N3[C@@H](O)[C@H](C2)N1C)OCO5 (stereo partly drawn) [drawing 221] |  |  |  |  |  |  |  |  |  |  |  |  |  |  |  |  |  |  | 2.33e-07 M | IC50 (HL60 [10]): 9.38e-09 M; IC50 (Molt 3 [11]): 0.0155 pM; IC50 (Hut 78 [12]): 6.21e-11 M; IC50 (U-937): 3.06e-11 M; IC50 (H9 [13]): 1.99e-11 M; IC50 (RAMOS [14]): 0.000777 nM
CCC(=O)N[C@@H](C)C(=O)NC[C@H]1c2c(c(OC(C)=O)c(C)c3c2OCO3)CC2[C@H]3c4c(cc(C)c(OC)c4O)C[C@@H]([C@H](O)N21)N3C (stereo partly drawn) [drawing 232] |  |  |  |  |  |  |  |  |  |  |  |  |  |  |  |  |  |  | 1.18e-08 M | IC50 (Molt 3 [15]): 9.86e-10 M; IC50 (RAMOS [16]): 5.01e-09 M; IC50 (HL60 [10]): 7.36e-09 M; IC50 (MC116 [17]): 1.49e-09 M; CYTOTOXIC ACTIVITY (M) H9 (H9 [18]): 2.43 to 08 M
COc1c(C)cc2c(c1O)[C@@H]1C3Cc4c(OC(C)=O)c(C)c5c(c4[C@H](COC(=O)CCc4ccccc4)N3[C@@H](O)[C@H](C2)N1C)OCO5 (stereo partly drawn) [drawing 235] | 7.71e-10 M |  | 7.88e-10 M | 8.22e-06 M | 8.99e-09 M |  | 8.53e-06 M | 5.4e-11 M |  | 9.23e-10 M | 1.55e-05 M | 2.23e-08 M |  | 2.95e-08 M | 1.29e-09 M | 5.68e-10 M | 1.03e-08 M | 1.29e-09 M |  | 
CCCC(=O)OC[C@H]1c2c(c(OC(C)=O)c(C)c3c2OCO3)CC2[C@H]3c4c(cc(C)c(OC)c4O)C[C@@H]([C@H](O)N21)N3C (stereo partly drawn) [drawing 236] | 6.18e-10 M | 1.17e-08 M | 3.02e-08 M | 8.49e-09 M | 1.34e-08 M | 3.55e-08 M |  | 2.47e-08 M | 4.75e-08 M | 1.13e-08 M | 2.95e-08 M | 1.25e-08 M | 3.29e-07 M | 7.05e-07 M | 6.12e-08 M | 1.28e-08 M | 2.64e-09 M | 5.01e-08 M |  | IC50 (NCI-H187 [19]): 2.33e-10 M
COc1c(C)cc2c(c1O)[C@@H]1C3Cc4c(OC(C)=O)c(C)c5c(c4[C@H](COC(=O)/C=C/c4ccccc4)N3[C@@H](O)[C@H](C2)N1C)OCO5 (stereo partly drawn) [drawing 238] |  |  |  |  |  |  |  |  |  |  |  |  |  |  |  |  |  |  | 6.13e-08 M | IC50 (Molt 3 [11]; human): 2480 pM; IC50 (HL60 [20]): 13.4 nM; IC50 (MC116 [21]): 6.38 nM; IC50 (H9 [13]): 1.91e-08 M; IC50 (Hut 78 [22]): 7.31 nM; IC50 (RAMOS [14]; human): 0.715 nM
COc1c(C)cc2c(c1O)[C@@H]1C3Cc4c(OC(C)=O)c(C)c5c(c4[C@H](COC(=O)/C=C/c4ccccc4)N3[C@@H](O)[C@H](C2)N1C)OCO5 (stereo partly drawn) [drawing 239] |  |  |  |  |  |  |  |  |  |  |  |  |  |  |  |  |  |  |  | IC50 (Molt 3 [11]; human): 86.9 pM; IC50 (H9 [18]; human): 21.7 nM; IC50 (HL60 [20]): 3.1 nM; IC50 (MC116 [21]): 0.0527 nM; IC50 (Hut 78 [22]): 48.1 nM; IC50 (RAMOS [14]; human): 1.86 nM
